The values below come from PubChem BioAssay AID1404 (The Scripps Research Institute Molecular Screening Center, 2008).

Active and inactive are the calls of the source.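 Rule for the calls: active = EC50 for STAT3 reporter activation at or below 10 µM; inactive = the rest.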

The assay relates to U3A cells, IL-6 STAT3 luciferase reporter, luminescence. Put plainly: STAT3 activators in IL-6-stimulated reporter cells, dose response, counter-screen for STAT1 activator project, U3A cells, STAT1-deficient, luminescence, IL-6 stimulus (AID 1404).
With `Cc1occc1C(=O)Nc1ccc2c(c1)CCC2`, the EC50 is > 55.7 µM (inactive).

As to `CC(C)Oc1ccc2c(=O)c(-c3ccccc3)coc2c1`, the EC50 is > 55.7 µM (inactive).

Regarding `CCC(C)NC(=O)c1cc(-c2ccc(OC)cc2)on1` (centres undefined), the EC50 was > 55.7 µM (inactive).

Consider `CCOC(=O)CSc1nc(-c2ccncc2)ccc1C#N`, for which the EC50 is > 55.7 µM (inactive).

Regarding `O=C(CCc1nnc(CCCc2ccccc2)o1)N1CCCCCC1`, the EC50 was > 55.7 µM (inactive).

Turning to `COc1cccc(NC(=O)Nc2ccc(C(C)(C)C)cc2)c1`, the EC50 was > 55.7 µM (inactive).

For the compound `O=C(NC(=S)Nc1ccc(F)cc1)c1ccc2c(c1)OCCO2`, the EC50 is > 55.7 µM (inactive).

Regarding `O=C(O)c1ccccc1C(=O)Nc1ccc(-c2csc(-c3ccccc3)n2)cc1`, the EC50 is > 55.7 µM (inactive).

On to `CC(=O)Nc1ccc(-c2csc(Nc3cccc(C)n3)n2)cc1`, for which the EC50 was > 55.7 µM (inactive).

Take `Cc1nc(-c2ccc(NC(=O)c3ccccc3C)cc2)cs1`: the EC50 is > 55.7 µM (inactive).

Take `Cc1ccc(/C=C/C(=O)N2CCCC(C)C2)cc1` (centres undefined): the EC50 was > 55.7 µM (inactive).

As to `Cc1nc2ccc3nc(NC(=O)c4ccco4)sc3c2s1`, the EC50 was > 55.7 µM (inactive).

As to `O=C(/C(C=Nc1ccc(F)cc1)=C(/O)c1ccco1)C(F)(F)F`, the EC50 is > 55.7 µM (inactive).

Turning to `Cc1ncsc1C(=O)Nc1nc2c(s1)CCCC2`, the EC50 is > 55.7 µM (inactive).

Consider `O=C(/C=C/c1ccccc1)Nc1ccc(Cl)cn1`, for which the EC50 is > 55.7 µM (inactive).

Regarding `c1csc(C2=NNC(=NC3CCCCC3)SC2)c1`, the EC50 is > 55.7 µM (inactive).

Turning to `CCOc1ccc2nc(N3CCOCC3)nc(C)c2c1`, the EC50 is > 55.7 µM (inactive).

`CN(C)c1nc(N)nc(CSc2nc3cc(Cl)ccc3o2)n1`: the EC50 is > 55.7 µM (inactive).

Consider `Nc1nc2ccc(-c3nc4ccccc4o3)cc2s1`, for which the EC50 was > 55.7 µM (inactive).

As to `Cc1ccc2nc(NC(=O)CCn3cccc3)sc2c1`, the EC50 is > 55.7 µM (inactive).

Turning to `O=C(OCc1csc(-c2ccccc2)n1)c1cccs1`, the EC50 is > 55.7 µM (inactive).

Take `COc1ccc(/C=C/C(=O)Nc2ccccc2)cc1OC`: the EC50 was > 55.7 µM (inactive).

Regarding `C=CCn1c(C)cc(C(=O)CSc2nc3ccccc3o2)c1C`, the EC50 was > 55.7 µM (inactive).

In the case of `CC(=O)c1cccc(NC(=S)NC(=O)c2cccc(C)c2)c1`, the EC50 is > 55.7 µM (inactive).

On to `CCOC(=O)c1ccc2nc(NC(C)=O)sc2c1`, for which the EC50 was > 55.7 µM (inactive).

Consider `O=C(/C=C/c1ccc(F)cc1)Nc1nc2ccccc2[nH]1`, for which the EC50 is > 55.7 µM (inactive).

For the compound `Cc1ccc(-c2cc3nc(C)cc(NCc4ccco4)n3n2)cc1`, the EC50 was > 55.7 µM (inactive).

Regarding `CN(C)c1ccnc2sc(C(=O)c3ccccc3)c(N)c12`, the EC50 is > 55.7 µM (inactive).

Consider `Nc1ccccc1Nc1cc(-c2ccccc2)[nH]n1`, for which the EC50 is > 55.7 µM (inactive).

Take `CC(=O)Nc1cccc(-c2cnc3ccccc3n2)c1`: the EC50 is > 55.7 µM (inactive).

On to `Cc1ccc(C(=O)/C=C/Nc2cccc([N+](=O)[O-])c2)o1`, for which the EC50 was > 55.7 µM (inactive).

In the case of `O=C(NCCC1=CCCCC1)c1ccc(F)cc1`, the EC50 was > 55.7 µM (inactive).

As for `CCN(CC)c1ccc2cc(C(=O)Nc3ccccn3)c(=O)oc2c1`, the EC50 was > 55.7 µM (inactive).

With `O=C(Cn1cnc2ccccc2c1=O)c1ccc(Cl)cc1`, the EC50 is > 55.7 µM (inactive).

On to `CCc1ccc(NC(=O)N2CCC(c3ccccc3)C2)cc1` (centres undefined), for which the EC50 was > 55.7 µM (inactive).

With `CCCCCNc1nc(-c2ccccc2)cs1`, the EC50 was > 55.7 µM (inactive).

On to `C=CCNC(=O)c1cc(-c2ccc(Br)cc2)on1`, for which the EC50 is > 55.7 µM (inactive).

On to `Cc1ccc(C(=O)Nc2nc3c(s2)CCCC3)o1`, for which the EC50 is > 55.7 µM (inactive).

In the case of `C=CCNC(=S)NNC(=O)COc1ccc2cc(Br)ccc2c1`, the EC50 was > 55.7 µM (inactive).

For the compound `COc1ccc2nc(Nc3nc(C)c(C(C)=O)s3)sc2c1`, the EC50 was > 55.7 µM (inactive).

In the case of `COc1ccc(Nc2oc(-c3cccs3)nc2C#N)cc1`, the EC50 is > 55.7 µM (inactive).

With `COc1cc(NC(=O)c2csc3c2CCCC3)ncn1`, the EC50 was > 55.7 µM (inactive).

In the case of `Nc1ccccc1C(=O)OCC(=O)N1CCc2ccccc21`, the EC50 was > 55.7 µM (inactive).

With `CCCOC(=O)c1ccc(-c2ccc(C=O)o2)cc1`, the EC50 is > 55.7 µM (inactive).

In the case of `CCCCOC(=O)Nc1nc2ccccc2s1`, the EC50 is > 55.7 µM (inactive).

Regarding `CCOC(=O)c1sc(NC(=O)c2sccc2C)cc1C`, the EC50 was > 55.7 µM (inactive).

Consider `Fc1ccccc1CSc1nnc(-c2cccnc2)o1`, for which the EC50 was > 55.7 µM (inactive).

With `Clc1ccc(-n2ncc3c(NCC4CCCO4)ncnc32)cc1` (centres undefined), the EC50 was > 55.7 µM (inactive).

Turning to `CC(=O)COc1ccc2c(C)c(-c3ccccc3)c(=O)oc2c1`, the EC50 was > 55.7 µM (inactive).

For the compound `O=C(Nc1nccs1)c1ccc(-c2ccc([N+](=O)[O-])cc2)o1`, the EC50 was > 55.7 µM (inactive).

Regarding `O=C(Nc1cccc(Cl)c1)c1ccc2c(=O)n3c(nc2c1)CCCCC3`, the EC50 is > 55.7 µM (inactive).

Turning to `O=C(/C=C/Nc1ccccc1F)c1ccc(Br)cc1`, the EC50 was > 55.7 µM (inactive).

In the case of `O=C(c1ccccc1)c1ccc(N2CCCC2)cc1`, the EC50 is > 55.7 µM (inactive).

In the case of `Nc1ncc(-c2cc3ccccc3oc2=O)s1`, the EC50 was > 55.7 µM (inactive).

With `CC(=O)Nc1ccccc1C(=O)OCc1cccc(F)c1`, the EC50 was > 55.7 µM (inactive).

On to `Cc1cc(C(=O)NCCC2=CCCCC2)c(C)o1`, for which the EC50 is > 55.7 µM (inactive).

Regarding `Cc1cccc(Nc2n[nH]c(C)c2[N+](=O)[O-])c1`, the EC50 was > 55.7 µM (inactive).

`O=C(/C=C/c1ccco1)Nc1ccccn1`: the EC50 was > 55.7 µM (inactive).

In the case of `Cc1nnc(SCC(=O)Nc2ccc(-c3nc4ccccc4s3)cc2)s1`, the EC50 was > 55.7 µM (inactive).

Regarding `Cc1ccc(C(=O)N2CCc3ccccc32)o1`, the EC50 is > 55.7 µM (inactive).

For the compound `O=C(Nc1ccc2c(c1)OCCO2)c1ccc(Br)s1`, the EC50 is > 55.7 µM (inactive).

Take `CCc1ccc(Nc2ncc3c(n2)CC(C)CC3=O)cc1` (centres undefined): the EC50 is > 55.7 µM (inactive).

In the case of `O=C(/C=C/Nc1ccc(F)cc1)c1ccc(Br)cc1`, the EC50 was > 55.7 µM (inactive).

As for `CC(C)=CC(=O)Nc1nc2ccc([N+](=O)[O-])cc2s1`, the EC50 is > 55.7 µM (inactive).

Take `COc1ccc(-c2cc3ncc(-c4ccccc4)c(N)n3n2)cc1`: the EC50 was > 55.7 µM (inactive).

Regarding `CN(C)c1ccc(C(=O)OCC(=O)c2cccs2)cc1`, the EC50 is > 55.7 µM (inactive).

For `O=C(Nc1ccc(-c2nc3cccnc3s2)cc1)c1ccco1`, the EC50 is > 55.7 µM (inactive).

As to `O=C(/C(C=Nc1ccc(Br)cc1)=C(/O)c1ccco1)C(F)(F)F`, the EC50 was > 55.7 µM (inactive).

For the compound `N#C/C(=C\c1ccc(N2CCOCC2)o1)c1nc2ccccc2[nH]1`, the EC50 was > 55.7 µM (inactive).
